Measurements: patent US12285434B2, “Therapeutic, preventive, or improvement agent for inflammatory disease and allergic disease” (The University of Tokyo, priority 2018, dated 2025)

Tests used:
[1] = tested on: eNOS phosphorylation in HUVECs; experiment: Histamine-induced eNOS phosphorylation (Western blot); type: cell-based, human; details: pretreatment 0.1 μM, 15 minutes; histamine 10 μM, 5 minutes
Experimental: In Examples 4 to 6, human umbilical vein endothelial cells (hereinafter, sometimes referred to as “HUVECs”, manufactured by Lonza) were cultured in EGM-2 (manufactured by Lonza K.K.). These cells (passages 4 to 9) were used for experiments after 4-hour starvation in EBM-2 (manufactured by Lonza K.K.) containing 2% FBS.
To the plates on which the HUVECs were cultured, 5,6-DiHETE was added so as to attain 100 nM, and, 15 minutes after the addition, histamine was added so as to attain 10 μM. Then, in order to measure the protein masses of phosphorylated eNOS and eNOS, 5 minutes after the administration of histamine, the HUVECs were lysed with a modified lysis buffer (50 mM Tris-HCl (pH 7.4), 0.1 mM EDTA, 0.1 mM EGTA, 1% NP-40 substitute, 0.1% SDS, 0.1% deoxycholic acid, 50 mM NaF, 1 mM Na3VO4, and 10 mM β-glycerophosphate). […] Bands were detected and quantified using an Odyssey system (manufactured by LI-COR Biosciences) (FIG. 5B). Specifically, the bands of phosphorylated eNOS and eNOS were detected by scanning (800 nm) with the Odyssey system, and their intensity (band brightness) was quantified. The phosphorylation level of eNOS (ratio of phosphorylated eNOS to eNOS) was quantified and evaluated by a relative value obtained by dividing the band brightness of phosphorylated eNOS by the band brightness of eNOS. […]

ear vessels of the mice = experiment: In vivo microscopy of ear vessels: FITC-dextran leakage and vascular diameter after histamine; design: species or system mouse
Experimental: To visualize the ear vessels of the mice, 70 kDa fluorescein isothiocyanate-dextran (10 mg/kg, manufactured by Sigma-Aldrich) was injected intravenously. Then, immediately after the administration of fluorescein isothiocyanate-dextran, 5,6-DiHETE (0.1 μg) was administered by instillation (percutaneously administered) as a pretreatment, and this group of mice was designated as a “5,6-DiHETE-administered group.” As a control group, a group of mice not administered with 5,6-DiHETE was designated as a “[…]-administered group”. Then, 15 minutes after the administration by instillation, histamine (400 μg) was administered by instillation (percutaneously administered) into the ventral surface of the ears for both the groups. Next, the mice were placed on the stage of a microscope confocal microscope (ECLIPSE Ti with C1 confocal system, manufactured by Nikon Corporation), and their body temperatures were maintained at 37° C. Dextran leakage and vascular diameter in the ears were monitored every minute in a period from 0 to 30 minutes after the administration of histamine using EZ-C1 Free Viewer (manufactured by Nikon Corporation), and the dextran leakage, artery diameter and vein diameter were quantified according to the description of Omori, K. et al., British Journal of Pharmacology, 171:4879-4889 (2014). It is known that smooth muscle contraction reduces the downstream blood flow and limits the vascular leakage, whereas smooth muscle relaxation (increase of vascular diameter) increases the blood flow, thereby leading to vascular leakage.

[2] = tested on: DSS-induced colitis model mice; experiment: DSS-induced colitis: colitis severity (body weight, fecal score, colon length); type: in vivo, mouse (C57BL/6); details: Day 14; 50 μg/kg/day intraperitoneally on Days 9, 11 and 13
Excerpt: C57BL/6 strain mice (male, 8 to 12 weeks old) were fed with water containing 2% dextran sodium sulfate (manufactured by MP Bio, hereinafter sometimes referred to as “DSS”) for 4 days to prepare colitis model mice (hereinafter, sometimes referred to as “colitis group” in Examples 7 to 10). The mice taken with DSS for 4 days were fed with normal water from Day 5. The DSS intake start date was defined as Day 1 of the test, and the day before the DSS intake start date was defined as Day 0 of the test. In addition, a group in which C57BL/6 strain mice (male, 8 to 12 weeks old) were fed with normal water was defined as a “healthy group” (the same applies to Examples 8 to 10).
In order to evaluate colitis severity, the fecal condition was evaluated and the body weight was measured daily for the colitis model mice and healthy group prepared in the above item (1). The fecal condition was evaluated based on the following five-grade fecal scores. Specifically, the fecal scores were 0: normal; 1: soft but still formed; 2: very soft; 3: diarrhea; and 4: bloody feces. In addition, the colon length was measured as an index of the colitis severity.
To investigate the role of 5,6-DiHETE in the healing phase, the colitis model mice prepared in Example 7(1) were intraperitoneally injected with 5,6-DiHETE (manufactured by Cayman Chemical) (50 μg/kg/day) or HC-067047 (manufactured by Cayman Chemical) (1 mg/kg/day) on Days 9, 11 and 13 of the test (hereinafter, sometimes referred to as “5,6-DiHETE-administered group” and “HC-067047-administered group,” respectively, in Examples 9 and 10). HC-067047 is known to inhibit an increase of calcium ion concentration in endothelial cells.
The colitis severity was determined according to the index and criteria described in Example 7(2).

[3] = 0.1 μg pretreatment 15 minutes before histamine 400 μg

CC/C=C\C/C=C\C/C=C\C/C=C\C[C@@H](O)[C@@H](O)CCCC(=O)O (racemic) [5,6-DiHETE, (±) 5,6-dihydroxy-8Z,11Z,14Z,17Z-eicosatetraenoic acid]
histamine-induced phosphorylation of eNOS (serine 1177) [1]: significantly reduced histamine-induced phosphorylation of eNOS
histamine-induced increase of vein diameter (ear vessels of the mice; [3]): not inhibited
mean fluorescence intensity of FITC-dextran extravasation vs histamine-administered group (ear vessels of the mice; [3]): significantly decreased
artery diameter as compared with arteries nonstimulated with histamine (ear vessels of the mice; 0.1 μg pretreatment by instillation 15 minutes before histamine 400 μg): 132±15%
colon length [2]: 6.4±0.1 cm
fecal score [2]: decreased to the normal level
relative body weight, of the initial weight [2]: 115.2±2.5%
